This is an account of results in ChEMBL document CHEMBL4420077, “Synaptojanin-2 inhibitors and uses thereof” (2015).

Test [1] concerns MDA-MB-231. To be noted: Homo sapiens, 10 uM.
Description: Inhibition of cell invasion of human MDA-MB-231 cells at 10 uM incubated for 96 hrs by Matrigel based assay
The subject of test [2] is MDA-MB-231. The following applies: Homo sapiens, 5 mg/kg.
Description: Antitumor activity against GFP-expressing human MDA-MB-231 cells xenografted in SCID mouse assessed as reduction in tumor lung micro-metastasis at 5 mg/kg injected twice per week for 6 weeks

Calls of active or inactive are those of the source. The rule behind the calls is not given here.

For the molecule `C/C(=C\CO[C@@H]1O[C@H](CO)[C@@H](O)[C@H](O)[C@H]1O)C(O)CCC(C)(C)O` (some centres not stated), the inhibition result in test [1] was “Active”.

Regarding `O=C(O)CC(CCc1ccccc1)O[C@H]1O[C@@H](CO)[C@H](O)[C@@H](O)[C@@H]1O` (some centres not stated), the inhibition result in test [2] is “Active”.

`COc1cc(O)cc(O)c1C(=O)c1ccc(O)c(O)c1`: the inhibition entry in test [1] was “Active”.

With `Cc1cc(=O)c2c(O)cc(O)c([C@@H]3O[C@H](CO)[C@@H](O)[C@H](O)[C@H]3O)c2o1`, the inhibition entry in test [1] is “Active”.

`O=C1C[C@@H](c2ccc(O)c(O)c2)Oc2cc(O[C@@H]3O[C@H](CO)[C@@H](O)[C@H](O)[C@H]3O)cc(O)c21`: the inhibition entry in test [1] is “Active”.

Consider `COc1cc(C2c3c(cc(OC)c(O)c3OC)CC(CO)C2COC2OCC(O)C(O)C2O)cc(OC)c1O` (configuration not stated), for which the inhibition result in test [1] is “Active”.

As for `Cc1c(O)cc2c(c1O)C(=O)[C@H](O)[C@@H](c1ccc(O)c(O)c1)O2`, in test [1], the inhibition entry was “Active”.
